Data from US20240002434A1, “METHODS OF INACTIVATING VIRAL CONTAMINANTS” (ICHNOS SCIENCES SA, priority 2017, published 2024).

System: MLV
Test: VRV study on Arginine treatment of PA eluate
Assay type: cell-based, Murine Leukemia Virus
Protocol: Based on the stability and activity studies reported in Example 1, the most promising viral inactivation methods were further tested for their ability to inactivate viruses. The effectiveness of the viral inactivation was evaluated by doing a spiking study at Bioreliance. Test samples were taken before and after each treatment and analyzed for viral titre. First, VRV study on Arginine treatment was carried out.
Only one virus, MLV, which is a typical model virus used for biological products derived from CHO cell lines such as monoclonal antibody, was used for this study. A total of 7 runs were performed. PA eluate from development runs was used as starting material. Different stock buffers of Arginine at the different pH (pH 4.0, pH 4.75, pH 4.79 and pH 5.5) were used to reach the target pH and concentration. The samples were neutralized using 250 mM Histidine pH 12.0 buffer around pH 6.0 to stop the reaction.
Log reduction values was calculated with respect to the neutralized load sample, a 5 plate large volume plating as well as a standard titration was performed on the t=60 min sample. The neutralized load hold sample was held at 16.0° C. to 20.0° C. for 60 minutes (runs 2, 4 and 6) or 120 minutes (runs 1, 3, 5 and 7).

For N=C(N)NCCC[C@H](N)C(=O)O [Arginine], the log10 reduction factor (Run 2, Arginine concentration (mM) 0.4, pH 4, 60 min) was 4.16 +/− 0.32 log10, the log10 reduction factor (Run 3, Arginine concentration (mM) 0.8, pH 4, 120 min) was 4.10 +/− 0.35 log10 and the log10 reduction factor (Run 4, Arginine concentration (mM) 0.8, pH 4.75, 60 min) was 2.82 +/− 0.4 log10. The log10 reduction factor (Run 5, Arginine concentration (mM) 0.38, pH 4.79, 120 min) was “no reduction”, the log10 reduction factor (Run 6, Arginine concentration (mM) 0, pH 5.5, 60, 120 min) was 0.35 +/− 0.4 log10 and the log10 reduction factor (Run 7, Arginine concentration (mM) 0.8, pH 5.5, 120 min) was “no reduction”.
